Reference: ChEMBL document CHEMBL2413072, “Synthesis and in vitro anticancer studies of novel C-2 arylidene congeners of lantadenes” (2013)

Experiments:
Type in all cases: functional
RPMI-8226 [1] = assay: Growth inhibition of human RPMI8226 cells by sulforhodamine B assay
CCRF-CEM [2] = assay: Growth inhibition of human CCRF-CEM cells by sulforhodamine B assay
OVCAR-3 [3] = assay: Growth inhibition of human OVCAR3 cells assessed as cell growth at 10^-8 M by sulforhodamine B assay; details: read-out: Activity
NCI-H460 [4] = assay: Growth inhibition of human NCI-H460 cells assessed as cell growth at 10^-8 M by sulforhodamine B assay; details: read-out: Activity
T47D [5] = assay: Growth inhibition of human T47D cells by sulforhodamine B assay
[6] = Growth inhibition of human Hs 578T cells by sulforhodamine B assay
MDA-MB-231 = assay: Growth inhibition of human MDA-MB-231 cells by sulforhodamine B assay
UO-31 = assay: Growth inhibition of human UO31 cells by sulforhodamine B assay
CAKI-1 [7] = assay: Growth inhibition of human CAKI-1 cells by sulforhodamine B assay
T47D [8] = assay: Growth inhibition of human T47D cells assessed as cell growth at 10^-4 M by sulforhodamine B assay; details: read-out: Activity
OVCAR-3 [9] = assay: Growth inhibition of human OVCAR3 cells assessed as cell growth at 10^-4 M by sulforhodamine B assay; details: read-out: Activity
UACC-257 = assay: Growth inhibition of human UACC257 cells assessed as cell growth at 10^-4 M by sulforhodamine B assay; details: read-out: Activity
SK-MEL-5 = assay: Growth inhibition of human SK-MEL-5 cells assessed as cell growth at 10^-4 M by sulforhodamine B assay; details: read-out: Activity
SK-MEL-28 = assay: Growth inhibition of human SK-MEL-28 cells assessed as cell growth at 10^-4 M by sulforhodamine B assay; details: read-out: Activity
COLO 205 = assay: Growth inhibition of human COLO205 cells assessed as cell growth at 10^-4 M by sulforhodamine B assay; details: read-out: Activity
NCI-H460 [10] = assay: Growth inhibition of human NCI-H460 cells assessed as cell growth at 10^-4 M by sulforhodamine B assay; details: read-out: Activity
NCI-H23 = assay: Growth inhibition of human NCI-H23 cells assessed as cell growth at 10^-4 M by sulforhodamine B assay; details: read-out: Activity
MOLT-4 = assay: Growth inhibition of human MOLT4 cells assessed as cell growth at 10^-4 M by sulforhodamine B assay; details: read-out: Activity
HL-60(TB) = assay: Growth inhibition of human HL-60(TB) cells assessed as cell growth at 10^-4 M by sulforhodamine B assay; details: read-out: Activity
CAKI-1 [11] = assay: Growth inhibition of human CAKI-1 cells assessed as cell growth at 10^-6 M by sulforhodamine B assay; details: read-out: Activity
[12] = Growth inhibition of human NCI-ADR-RES cells assessed as cell growth at 10^-6 M by sulforhodamine B assay; details: read-out: Activity
OVCAR-3 [13] = assay: Growth inhibition of human OVCAR3 cells assessed as cell growth at 10^-6 M by sulforhodamine B assay; details: read-out: Activity
MDA-MB-435 = assay: Growth inhibition of human MDA-MB-435 cells assessed as cell growth at 10^-6 M by sulforhodamine B assay; details: read-out: Activity
Malme-3M = assay: Growth inhibition of human MALME-3M cells assessed as cell growth at 10^-6 M by sulforhodamine B assay; details: read-out: Activity
U-251 = assay: Growth inhibition of human U251 cells assessed as cell growth at 10^-6 M by sulforhodamine B assay; details: read-out: Activity
NCI-H460 [14] = assay: Growth inhibition of human NCI-H460 cells assessed as cell growth at 10^-6 M by sulforhodamine B assay; details: read-out: Activity
NCI-H522 = assay: Growth inhibition of human NCI-H522 cells assessed as cell growth at 10^-6 M by sulforhodamine B assay; details: read-out: Activity
RPMI-8226 [15] = assay: Growth inhibition of human RPMI8226 cells assessed as cell growth at 10^-6 M by sulforhodamine B assay; details: read-out: Activity
CCRF-CEM [16] = assay: Growth inhibition of human CCRF-CEM cells assessed as cell growth at 10^-6 M by sulforhodamine B assay; details: read-out: Activity
[17] = Growth inhibition of human Hs 578T cells assessed as cell growth at 10^-7 M by sulforhodamine B assay; details: read-out: Activity
OVCAR-4 = assay: Growth inhibition of human OVCAR4 cells assessed as cell growth at 10^-7 M by sulforhodamine B assay; details: read-out: Activity
OVCAR-3 [18] = assay: Growth inhibition of human OVCAR3 cells assessed as cell growth at 10^-7 M by sulforhodamine B assay; details: read-out: Activity
SK-MEL-2 = assay: Growth inhibition of human SK-MEL-2 cells assessed as cell growth at 10^-7 M by sulforhodamine B assay; details: read-out: Activity
SNB-75 = assay: Growth inhibition of human SNB75 cells assessed as cell growth at 10^-7 M by sulforhodamine B assay; details: read-out: Activity
SF-539 = assay: Growth inhibition of human SF539 cells assessed as cell growth at 10^-7 M by sulforhodamine B assay; details: read-out: Activity
HOP-92 = assay: Growth inhibition of human HOP92 cells assessed as cell growth at 10^-7 M by sulforhodamine B assay; details: read-out: Activity
NCI-H226 = assay: Growth inhibition of human NCI-H226 cells assessed as cell growth at 10^-7 M by sulforhodamine B assay; details: read-out: Activity
RPMI-8226 [19] = assay: Growth inhibition of human RPMI8226 cells assessed as cell growth at 10^-7 M by sulforhodamine B assay; details: read-out: Activity
CCRF-CEM [20] = assay: Growth inhibition of human CCRF-CEM cells assessed as cell growth at 10^-7 M by sulforhodamine B assay; details: read-out: Activity
RXF 393 = assay: Growth inhibition of human RXF393 cells assessed as cell growth at 10^-8 M by sulforhodamine B assay; details: read-out: Activity
[21] = read-out: LC50 (the source's name)
[22] = read-out: pLC50 (the source's name) (converted)

SMILES: CC(C)=CC(=O)O[C@@H]1CC(C)(C)C[C@H]2C3=CC[C@@H]4[C@@]5(C)CC[C@H](O)C(C)(C)[C@@H]5CC[C@@]4(C)[C@]3(C)CC[C@@]12C(=O)O [Reduced Lantadene B]
- GI50 (RPMI-8226 [1]; read-out: GI50): 2.43 µM
- CC50 (RPMI-8226 [1]; [21]): > 100 µM
- TGI (RPMI-8226 [1]; read-out: TGI): 38.3 µM
- GI50 (RPMI-8226 [1]; read-out: pGI50 (converted)): 2.45 µM
- CC50 (RPMI-8226 [1]; [22]): > 100 µM
- TGI (RPMI-8226 [1]; read-out: pTGI (converted)): 38 µM
- GI50 (CCRF-CEM [2]; read-out: GI50): 2.83 µM
- CC50 (CCRF-CEM [2]; [21]): > 100 µM
- TGI (CCRF-CEM [2]; read-out: TGI): 34.8 µM
- GI50 (CCRF-CEM [2]; read-out: pGI50 (converted)): 2.82 µM
- CC50 (CCRF-CEM [2]; [22]): > 100 µM
- TGI (CCRF-CEM [2]; read-out: pTGI (converted)): 34.7 µM
- growth at 0.01 µM (OVCAR-3 [3]): 104%
- growth at 0.01 µM (NCI-H460 [4]): 105%
- GI50 (T47D [5]; read-out: GI50): 16.7 µM
- CC50 (T47D [5]; [21]): > 100 µM
- TGI (T47D [5]; read-out: TGI): 63.4 µM
- GI50 (T47D [5]; read-out: pGI50 (converted)): 16.6 µM
- CC50 (T47D [5]; [22]): > 100 µM
- TGI (T47D [5]; read-out: pTGI (converted)): 63.1 µM
- GI50 ([6]; read-out: GI50): 3.04 µM
- CC50 [6, 21]: > 100 µM
- TGI ([6]; read-out: TGI): 12.3 µM
- GI50 ([6]; read-out: pGI50 (converted)): 3.02 µM
- CC50 [6, 22]: > 100 µM
- TGI ([6]; read-out: pTGI (converted)): 12.3 µM
- GI50 (MDA-MB-231; read-out: GI50): 4.56 µM
- CC50 (MDA-MB-231; [21]): 54.7 µM
- TGI (MDA-MB-231; read-out: TGI): 19.4 µM
- GI50 (MDA-MB-231; read-out: pGI50 (converted)): 4.57 µM
- CC50 (MDA-MB-231; [22]): 55 µM
- TGI (MDA-MB-231; read-out: pTGI (converted)): 19.5 µM
- GI50 (UO-31; read-out: GI50): 3.69 µM
- CC50 (UO-31; [21]): 45.4 µM
- TGI (UO-31; read-out: TGI): 15.5 µM
- GI50 (UO-31; read-out: pGI50 (converted)): 3.72 µM
- CC50 (UO-31; [22]): 45.7 µM
- TGI (UO-31; read-out: pTGI (converted)): 15.5 µM
- GI50 (CAKI-1 [7]; read-out: GI50): 3.39 µM
- CC50 (CAKI-1 [7]; [21]): > 100 µM
- TGI (CAKI-1 [7]; read-out: TGI): 46.8 µM
- GI50 (CAKI-1 [7]; read-out: pGI50 (converted)): 3.39 µM
- CC50 (CAKI-1 [7]; [22]): > 100 µM
- TGI (CAKI-1 [7]; read-out: pTGI (converted)): 46.8 µM
- growth at 100 µM (T47D [8]): -17%
- growth at 100 µM (OVCAR-3 [9]): -83%
- growth at 100 µM (UACC-257): -34%
- growth at 100 µM (SK-MEL-5): -64%
- growth at 100 µM (SK-MEL-28): -64%
- growth at 100 µM (COLO 205): -52%
- growth at 100 µM (NCI-H460 [10]): -4%
- growth at 100 µM (NCI-H23): -58%
- growth at 100 µM (MOLT-4): -43%
- growth at 100 µM (HL-60(TB)): -52%
- growth at 1 µM (CAKI-1 [11]): 85%
- growth at 1 µM [12]: 90%
- growth at 1 µM (OVCAR-3 [13]): 86%
- growth at 1 µM (MDA-MB-435): 95%
- growth at 1 µM (Malme-3M): 104%
- growth at 1 µM (U-251): 73%
- growth at 1 µM (NCI-H460 [14]): 78%
- growth at 1 µM (NCI-H522): 78%
- growth at 1 µM (RPMI-8226 [15]): 65%
- growth at 1 µM (CCRF-CEM [16]): 75%
- growth at 0.1 µM [17]: 97%
- growth at 0.1 µM (OVCAR-4): 96%
- growth at 0.1 µM (OVCAR-3 [18]): 105%
- growth at 0.1 µM (SK-MEL-2): 95%
- growth at 0.1 µM (SNB-75): 89%
- growth at 0.1 µM (SF-539): 98%
- growth at 0.1 µM (HOP-92): 87%
- growth at 0.1 µM (NCI-H226): 88%
- growth at 0.1 µM (RPMI-8226 [19]): 92%
- growth at 0.1 µM (CCRF-CEM [20]): 102%
- growth at 0.01 µM (RXF 393): 97%
